Reference: ChEMBL document CHEMBL4219034, “Synthesis, antimicrobial activity, structure-activity relationship and cytotoxic studies of a new series of functionalized (Z)-3-(2-oxo-2-substituted ethylidene)-3,4-dihydro-2H-benzo[b][1,4]oxazin-2-ones” (Bioorg Med Chem Lett, 2017)
Values after ≈ are worked out from the molar mass of the structure shown. Active and inactive are the calls of the source. The rule behind the calls is not given here.

Assays:
Format in all cases: functional
Streptomyces griseus [1] = experiment: Antibacterial activity against Streptomyces griseus MTCC 4734 incubated for 24 hrs by serial dilution method
Staphylococcus aureus [2] = experiment: Antibacterial activity against Staphylococcus aureus MTCC 3381 incubated for 24 hrs by serial dilution method
Bacillus subtilis [3] = experiment: Antibacterial activity against Bacillus subtilis MTCC 10619 incubated for 24 hrs by serial dilution method
Escherichia coli [4] = experiment: Antibacterial activity against Escherichia coli MTCC 443 incubated for 24 hrs by serial dilution method
Streptomyces griseus [5] = experiment: Antibacterial activity against Streptomyces griseus MTCC 4734 at 100 ug/ml incubated for 12 hrs by agar disc diffusion assay; conditions: for zone of inhibition at 100 µg/mL: MTCC 4734, 12 h, read-out: IZ
Staphylococcus aureus [6] = experiment: Antibacterial activity against Staphylococcus aureus MTCC 3381 at 100 ug/ml incubated for 12 hrs by agar disc diffusion assay; conditions: for zone of inhibition at 100 µg/mL: MTCC 3381, 12 h, read-out: IZ
Bacillus subtilis [7] = experiment: Antibacterial activity against Bacillus subtilis MTCC 10619 at 100 ug/ml incubated for 12 hrs by agar disc diffusion assay; conditions: for zone of inhibition at 100 µg/mL: MTCC 10619, 12 h, read-out: IZ
Escherichia coli [8] = experiment: Antibacterial activity against Escherichia coli MTCC 443 at 100 ug/ml incubated for 12 hrs by agar disc diffusion assay; conditions: for zone of inhibition at 100 µg/mL: MTCC 443, 12 h, read-out: IZ
Fusarium oxysporum [9] = experiment: Antifungal activity against Fusarium oxysporum ATCC 62506 incubated for 24 hrs by serial dilution method
Aspergillus niger [10] = experiment: Antifungal activity against Aspergillus niger ATCC 9029 incubated for 24 hrs by serial dilution method
Talaromyces funiculosus [11] = experiment: Antifungal activity against Penicillium funiculosum ATCC 11797 incubated for 24 hrs by serial dilution method
Trichoderma reesei [12] = experiment: Antifungal activity against Trichoderma reesei ATCC 13631 incubated for 24 hrs by serial dilution method
Fusarium oxysporum [13] = experiment: Antifungal activity against Fusarium oxysporum ATCC 62506 at 100 ug/ml incubated for 72 hrs by agar disc diffusion assay; conditions: for zone of inhibition at 100 µg/mL: ATCC 62506, 72 h, read-out: IZ
Aspergillus niger [14] = experiment: Antifungal activity against Aspergillus niger ATCC 9029 at 100 ug/ml incubated for 72 hrs by agar disc diffusion assay; conditions: for zone of inhibition at 100 µg/mL: ATCC 9029, 72 h, read-out: IZ
Talaromyces funiculosus [15] = experiment: Antifungal activity against Penicillium funiculosum ATCC 11797 at 100 ug/ml incubated for 72 hrs by agar disc diffusion assay
Trichoderma reesei [16] = experiment: Antifungal activity against Trichoderma reesei ATCC 13631 at 100 ug/ml incubated for 72 hrs by agar disc diffusion assay

MIC (Streptomyces griseus [1])	MIC (Staphylococcus aureus [2])	MIC (Bacillus subtilis [3])	MIC (Escherichia coli [4])	MIC (Aspergillus niger [10]; ATCC 9029, 24 h)	MIC (Talaromyces funiculosus [11])	MIC (Trichoderma reesei [12])	MIC (Fusarium oxysporum [9])	SMILES	MIC (Streptomyces griseus [1]; MTCC 4734, 24 h)	MIC (Escherichia coli [4]; MTCC 443, 24 h)	zone of inhibition at 100 µg/mL (Streptomyces griseus [5])	zone of inhibition at 100 µg/mL (Escherichia coli [8])	inhibition zone (IZ) (Streptomyces griseus [5])	inhibition zone (IZ) (Staphylococcus aureus [6])	inhibition zone (IZ) (Bacillus subtilis [7])	inhibition zone (IZ) (Escherichia coli [8])	inhibition zone (IZ) (Aspergillus niger [14])	inhibition zone (IZ) (Talaromyces funiculosus [15])	inhibition zone (IZ) (Trichoderma reesei [16])	inhibition zone (IZ) (Fusarium oxysporum [13])	also measured
inactive	inactive	inactive	inactive	100 µg/mL (≈ 277 µM)	inactive	inactive		Cc1ccc2c(c1)N/C(=C\C(=O)c1ccc(C3CCCCC3)cc1)C(=O)O2					inactive	inactive	inactive	inactive	inactive	inactive	inactive		MIC (Fusarium oxysporum [9]; ATCC 62506, 24 h): 50 µg/mL (≈ 138 µM); zone of inhibition at 100 µg/mL (Fusarium oxysporum [13]): 12 mm
inactive	inactive	inactive	inactive		inactive	inactive	inactive	Cc1ccc2c(c1)N/C(=C\C(=O)c1cccc3ccccc13)C(=O)O2					inactive	inactive	inactive	inactive	inactive	inactive	inactive	inactive	MIC (Aspergillus niger [10]): inactive
	inactive	inactive	inactive	25 µg/mL (≈ 65.5 µM)	inactive			O=C1Oc2ccc(Cl)cc2N/C1=C\C(=O)c1ccc(C2CCCCC2)cc1	100 µg/mL (≈ 262 µM)		6 mm			inactive	inactive	inactive		inactive			MIC (Fusarium oxysporum [9]; ATCC 62506, 24 h): 25 µg/mL (≈ 65.5 µM); MIC (Trichoderma reesei [12]; ATCC 13631, 24 h): 25 µg/mL (≈ 65.5 µM); zone of inhibition at 100 µg/mL (Fusarium oxysporum [13]): 14 mm; zone of inhibition at 100 µg/mL (Aspergillus niger [14]): 10 mm; zone of inhibition at 100 µg/mL (Trichoderma reesei [16]; ATCC 13631, 72 h, read-out: IZ): 16 mm

The next lines start with the compound.

SMILES	MIC (Streptomyces griseus [1])	MIC (Staphylococcus aureus [2])	MIC (Bacillus subtilis [3])	MIC (Escherichia coli [4])	MIC (Aspergillus niger [10]; ATCC 9029, 24 h)	MIC (Talaromyces funiculosus [11])	MIC (Trichoderma reesei [12])	MIC (Fusarium oxysporum [9])	MIC (Streptomyces griseus [1]; MTCC 4734, 24 h)	MIC (Escherichia coli [4]; MTCC 443, 24 h)	zone of inhibition at 100 µg/mL (Streptomyces griseus [5])	zone of inhibition at 100 µg/mL (Escherichia coli [8])	inhibition zone (IZ) (Streptomyces griseus [5])	inhibition zone (IZ) (Staphylococcus aureus [6])	inhibition zone (IZ) (Bacillus subtilis [7])	inhibition zone (IZ) (Escherichia coli [8])	inhibition zone (IZ) (Aspergillus niger [14])	inhibition zone (IZ) (Talaromyces funiculosus [15])	inhibition zone (IZ) (Trichoderma reesei [16])	inhibition zone (IZ) (Fusarium oxysporum [13])	also measured
O=C(N[C@H](CO)[C@H](O)c1ccc([N+](=O)[O-])cc1)C(Cl)Cl [CHLORAMPHENICOL]									3.12 µg/mL (≈ 9.67 µM)	6.25 µg/mL (≈ 19.3 µM)	28 mm	32 mm									MIC (Staphylococcus aureus [2]; MTCC 3381, 24 h): 6.25 µg/mL (≈ 19.3 µM); MIC (Bacillus subtilis [3]; MTCC 10619, 24 h): 6.25 µg/mL (≈ 19.3 µM); zone of inhibition at 100 µg/mL (Staphylococcus aureus [6]): 22 mm; zone of inhibition at 100 µg/mL (Bacillus subtilis [7]): 26 mm
O=C1Oc2ccccc2N/C1=C\C(=O)c1ccc(-c2ccccc2)cc1	inactive	inactive	inactive		100 µg/mL (≈ 293 µM)		inactive	inactive		25 µg/mL (≈ 73.2 µM)		14 mm	inactive	inactive	inactive				inactive	inactive	MIC (Talaromyces funiculosus [11]; ATCC 11797, 24 h): 25 µg/mL (≈ 73.2 µM); zone of inhibition at 100 µg/mL (Aspergillus niger [14]): 4 mm; zone of inhibition at 100 µg/mL (Talaromyces funiculosus [15]; ATCC 11797, 72 h, read-out: IZ): 14 mm
CC1(C)S[C@@H]2[C@H](NC(=O)[C@H](N)c3ccccc3)C(=O)N2[C@H]1C(=O)O [AMPICILLIN]									12.5 µg/mL (≈ 35.8 µM)	12.5 µg/mL (≈ 35.8 µM)	20 mm	24 mm									MIC (Staphylococcus aureus [2]; MTCC 3381, 24 h): 12.5 µg/mL (≈ 35.8 µM); MIC (Bacillus subtilis [3]; MTCC 10619, 24 h): 25 µg/mL (≈ 71.5 µM); zone of inhibition at 100 µg/mL (Staphylococcus aureus [6]): 11 mm; zone of inhibition at 100 µg/mL (Bacillus subtilis [7]): 18 mm
O=C1Oc2ccc(Cl)cc2N/C1=C\C(=O)c1cccc2ccccc12	inactive	inactive	inactive	inactive		inactive	inactive	inactive					inactive	inactive	inactive	inactive	inactive	inactive	inactive	inactive	MIC (Aspergillus niger [10]): inactive
